From PubChem BioAssay AID1996 come the findings set out here.

Converted amounts (≈) assume the structure as drawn. A value given as a limit tells only on which side of the number the result lay.

For the data set the following is noted: buffer; pH 7.4; 200.0 µM.
As usually defined, the solubility (kinetic) is solubility judged after dilution from a stock solution rather than from solid. Consider `N#CCc1c(C#N)c(N)nc(N2CCN(C=O)CC2)c1C#N`, for which the solubility (kinetic) is over 44.3 µg/mL. With `CC(C)NC(=O)c1cc2c(=O)n3ccccc3nc2s1` the figure was under 0.2 µg/mL. With `CC1Cc2cc(/C=C3/SC(=S)NC3=O)ccc2O1` (stereo unspecified) the figure was 9.3 µg/mL (≈ 33.5 µM). For the molecule `COc1ccc(C2C(C(C)=O)=C(O)C(=O)N2c2ccc(F)cc2)cc1` (stereo unspecified), the kinetic solubility is 48.5 µg/mL (≈ 142 µM). With `Cc1ccc(-c2nc3ncccc3o2)cc1NC(=O)C(C)C` the figure was 25.3 µg/mL (≈ 85.7 µM); with `CCOC(=O)N1CCN(C(=O)COC(=O)c2cc(C)ccc2C)CC1`, over 52.3 µg/mL.

Regarding `O=C(/C=C/c1ccccc1)Oc1ccccc1C(=S)N1CCOCC1`, the kinetic solubility was 18.9 µg/mL (≈ 53.5 µM). For `Cc1noc(C(=O)Nc2ccc(C#N)cc2)c1Cl`, the kinetic solubility was determined as 1.6 µg/mL (≈ 6.11 µM). With `CCOC(=O)c1cnc(SCC(=O)NNC(=O)c2ccco2)nc1N` the figure was over 54.8 µg/mL; with `O=C(Nc1ccccc1C(=O)Nc1ccccc1)c1ccccc1F`, under 0.4 µg/mL.

Take `O=C(O)c1ccccc1-n1cccc1C(=O)O`: the kinetic solubility is over 34.7 µg/mL. With `O=c1c2ccccc2[nH]c(=S)n1-c1ccc2c(c1)OCCO2` the figure was 4.5 µg/mL (≈ 14.4 µM); with `Cc1c(S(=O)(=O)NCc2ccccc2)c(=O)n(C)c(=O)n1C`, over 48.5 µg/mL; with `CN(Cc1ccccc1)C(=O)COc1cccnc1[N+](=O)[O-]`, over 45.2 µg/mL.

Regarding `O=C(NCC1CCCO1)c1ccc(NC(=O)c2cccc(Cl)c2)cc1` (stereo unspecified), the kinetic solubility is 2.5 µg/mL (≈ 6.97 µM). The molecule `CCC(C)NC(=O)c1cc2cc3ccc(OC)cc3nc2o1` (stereo unspecified) had a kinetic solubility of 30.4 µg/mL (≈ 102 µM).

The molecule `Cc1ccc(-c2nc(-c3ccncc3)no2)c(C)c1` gave a solubility (kinetic) of 0.5 µg/mL (≈ 1.99 µM). With `COc1ccc(CN2CCN(C(=O)c3ccc4c(c3)CCC4)CC2)cc1OC` the figure was 39.5 µg/mL (≈ 104 µM).

`Cc1ccc(C(=O)OCC(=O)NC2CCCCC2)s1` came in with a kinetic solubility of over 42.2 µg/mL. With `COc1ccc(CN2CCCCCC2)cc1` the figure was 26.2 µg/mL (≈ 119 µM); with `COc1nc2c(c(-c3cc(Br)cs3)c1C#N)Cc1ccccc1-2`, under 0.4 µg/mL. With `CC(C)(C)C(=O)N1CCN(c2nc3ccccc3o2)CC1` the figure was over 43.1 µg/mL; with `Cc1cc([N+](=O)[O-])nn1CC(=O)NCCCN1CCOCC1`, over 46.7 µg/mL; with `Nc1ccc(N2CCCC2)c(S(=O)(=O)Nc2cccc(C(F)(F)F)c2)c1`, 25.8 µg/mL (≈ 66.9 µM). `Cc1ccc(CN(Cc2ccco2)C(=S)NCC(=O)NC2CC2)cc1` showed a solubility (kinetic) of 47.2 µg/mL (≈ 132 µM). Regarding `CC(=O)c1ccc(NC(=O)COC(=O)/C=C/c2cccs2)cc1`, the kinetic solubility amounted to 7.3 µg/mL (≈ 22.2 µM). With `Cc1nc2cc(C(=O)N3CCN(C)CC3)ccc2n1C` the figure was 40.2 µg/mL (≈ 148 µM); with `CCOC(=O)c1cc(C(=O)NC(C)c2ccccc2)c(=O)[nH]c1C` (stereo unspecified), 1.6 µg/mL (≈ 4.87 µM). With `O=C(O)c1c(Cl)nc2ccccn12` the figure was over 29.5 µg/mL; with `CC(C)(CNC(=O)CCC1CCCC1)CNC(=O)CCC1CCCC1`, 27.1 µg/mL (≈ 77.3 µM); with `O=C(O)c1cn(CCOc2ccccc2Cl)c2ccccc12`, over 47.4 µg/mL. With `CC(=O)c1c(O)c2cccc3c2n(c1=O)CCC3` the figure was over 36.5 µg/mL; with `NC(=O)CC[C@H](NC(=O)c1ccc(F)cc1)C(=O)N1CCN(Cc2ccc3c(c2)OCO3)CC1`, over 70.6 µg/mL; with `O=C1CN(S(=O)(=O)c2cc(Cl)ccc2Cl)c2ccccc2N1`, 37.8 µg/mL (≈ 106 µM). `COc1ccc(N2C(=O)CC(C3CCCO3)C2=O)cc1` (stereo unspecified) displayed a kinetic solubility of over 41.3 µg/mL. With `Cc1ccc(C(=O)NCCC(=O)NCc2ccco2)cc1` the figure was over 42.9 µg/mL; with `Cc1ccc(CCN2CC(C(=O)NCCN(C)C)CC2=O)cc1` (stereo unspecified), over 47.6 µg/mL; with `COC(=O)c1sc(NC(=O)c2cc(C)on2)nc1C`, 35.5 µg/mL (≈ 126 µM). For `CCC(NC(=S)NC1CCCCC1)c1ccc(C(C)C)cc1` (stereo unspecified), the solubility (kinetic) is 1.6 µg/mL (≈ 5.02 µM). With `O=C(NCCCNC(=O)c1cccnc1)c1ccc(Cl)cc1` the figure was 43.3 µg/mL (≈ 136 µM); with `CCc1ccc(C(C)NC(=S)NC2CCCCC2)cc1` (stereo unspecified), 11.4 µg/mL (≈ 39.2 µM).
